The values that follow come from patent US7048907B2, “Synthesis, compositions and methods for the measurement of the concentration of stable-isotope labeled compounds in life forms and life form excretory products” (BioPhysics Assay Laboratory, Inc., priority 2001, dated 2006).

Some results are limits rather than exact numbers.

The nature of data set [1]: Stability of chelates to autoclaving (CM-Sephadex assay). It is filed as physicochemical. As to conditions: for % of total / dpm: autoclaved 30 minutes at 121° C. How it is done:
A sample comprising 5 ml of Sm-DTPA, La-DTPA, and Eu-DTPA prepared in Examples 9, 10, and 11 were placed in 10 ml glass bottles, each capped with a grey butyl rubber cap, and the caps were crimped. Samples were autoclaved for 30 minutes at 121° C.
Five ml of each of Sm-DOTA, La-DOTA, and Eu-DOTA prepared in Examples 13, 14, and 15 were placed in 10 ml glass bottles capped with a grey butyl rubber cap and crimped. Samples were autoclaved for 30 minutes at 121° C. Samples were allowed to cool to room temperature and were assayed as described in Examples 25.

The nature of data set [2]: Assay of chelate on carboxymethyl (CM) Sephadex column (chelate formation, charge). It is filed as physicochemical. Conditions: for time within which the chelate forms: room temperature, Tris pH 7.5. Here is the method:
Preparation of carboxymethyl sephadex column. To two 10 ml plastic pipets cut off at the 3 ml mark and plugged with glass wool at the bottom add enough slurry to form a 2 ml volume of the CM sephadex. Wash the packed resin with 6 ml of 1 M Tris buffer pH 7.5, and 6 ml of 0.01M Tris buffer pH 7.5. […] Collect the eluants of fractions as follows. Fraction 1.3 ml of 0.01 M Tris buffer pH 7.5 and allow to drain into column. Fraction 2.1 ml of sample (gadolinium-DTPA or gadolinium chloride) and allow to drain into column. Apply 3 ml of 0.01 M Tris buffer pH 7.5 and allow to drain into column. Fraction 3.3 ml of 0.01M Tris buffer pH 7.5 and allow to drain into column. Dry all fractions at 70° C. for 76 hours, dissolve in 1 ml of 1 mM HCl and assay by atomic absorption.
(§1) Preparation of carboxymethyl Sephadex column. To two 10 ml plastic pipets which had been cut off at the 3 ml mark and plugged with glass wool at the bottom, enough slurry was added to form a 2 ml volume of the CM Sephadex. The packed resin was wash with 6 ml of 1 M Tris buffer pH 7.5, and 6 ml of 0.01M Tris buffer pH 7.5. […] Fractions were applied as follows. Fraction 1. Three ml of 0.01 M Tris buffer pH 7.5 and allow to drain into column. Fraction 2. One ml of sample (samarium-DTPA or samarium chloride) and allow to drain into column. Apply 3 ml of 0.01 M Tris buffer pH 7.5 and allow to drain into column. Fraction 3. Three ml of 0.01M Tris buffer pH 7.5 and allow to drain into column. Collect the eluant of fractions 1 through 3. Fraction 4. Column and contents.
as §1, with “were” for “had been”, “washed” for “wash”, “(lanthanum-DTPA” for “(samarium-DTPA”, “lanthanum” for “samarium”
as §1, with “were” for “had been”, “washed” for “wash”, “(Europium-DTPA” for “(samarium-DTPA”, “Europium” for “samarium”
Preparation of carboxymethyl sephadex column. To a 10 ml plastic pipet cut off at the 3 ml mark and plugged with glass wool at the bottom, add enough slurry to form a 2 ml volume of the CM sephadex. Wash the packed resin with 6 ml of 1 M Tris buffer pH 7.5, and 6 ml of 0.01M Tris buffer pH 7.5. […] Apply fractions as follows. Fraction 1. One ml of sample A and allow to drain into column.

Data set [3] can be described thus: Kinetics of blood depletion and urine accumulation of chelates in the rat. It is filed as in vivo. As to conditions: average of three rats. Here is the method:
One half ml of Sm-DTPA (0.01 mg/kg), dissolved in saline (pH 7), is injected into the tail vein of three rats. Samples of blood are obtained at 10, 30 and 60 minutes following injection and analyzed for Sm-DTPA by neutron activation. The percent of starting amount of the Sm-DTPA at each time interval is presented in Table 18 (last column on right). Similarly, the accumulation of Sm-DTPA in the rat urine at two times is shown in the last column of Table 18.
One half ml of Technetium-99m-DTPA (1 millicurie), Gd-DTPA (0.05 mg/kg), and Sm-DTPA (0.01 mg/kg) are each dissolved in saline (pH 7), and are injected simultaneously into the tail vein of three rats. Samples of blood are obtained at 10, 30 and 60 minutes following injection and analyzed for ^99mTc-DTPA (gamma counting), Gd-DTPA (T1 relaxation) and Sm-DTPA (neutron activation).
One half ml of Sm-DTPA, La-DTPA and Eu-DTPA (each 0.01 mg/kg), dissolved in saline (pH 7) are injected simultaneously into the tail vein of three rats. Samples of blood are obtained at 10, 30 and 60 minutes following injection and analyzed for each element by neutron activation.
Samples of Sm-DTPA, La-DTPA and Eu-DTPA (0.5 ml; 0.01 mg/kg), each dissolved in saline (pH 7), are injected sequentially at 0, 20, and 40 minutes into the tail vein of three rats. Samples of blood are obtained at 10, 30 and 60 min following each injection and analyzed for each element by neutron activation.

[4] abbreviates: Fraction 1: sample diluted 1:10 then 2-3 ml 0.01M Tris pH 7.5 (eluate).
[5] abbreviates: Fraction 2: 3 ml 0.01M Tris pH 7.5.
[6] abbreviates: Fraction 3: column and contents (retained).
Where [7] appears, read: Fraction 1: 3 ml 0.01M Tris pH 7.5 before sample.
Setting [8] is: Fraction 2: 1 ml sample then 3 ml 0.01M Tris pH 7.5 (eluate).
Where [9] appears, read: Fraction 3: further 3 ml 0.01M Tris pH 7.5.
The mark [10] stands for this setting: Fraction 4: column and contents (retained).
Setting [11] is: blood 10 min, Sm-DTPA, La-DTPA and Eu-DTPA (each 0.01 mg/kg i.v.) simultaneously administered (Example 31).
Where [12] appears, read: blood 10 min after each injection, Sm-DTPA, La-DTPA, Eu-DTPA (0.01 mg/kg i.v.) sequentially administered at 0, 20, 40 minutes (Example 32).
The mark [13] stands for this setting: blood 30 min, Sm-DTPA, La-DTPA and Eu-DTPA simultaneously administered (Example 31).
Setting [14] is: blood 30 min after each injection, sequentially administered (Example 32).
The mark [15] stands for this setting: blood 60 min, Sm-DTPA, La-DTPA and Eu-DTPA simultaneously administered (Example 31).
Setting [16] is: blood 60 min after each injection, sequentially administered (Example 32).
The mark [17] stands for this setting: urine 30 min, Sm-DTPA, La-DTPA and Eu-DTPA simultaneously administered (Example 31).
The mark [18] stands for this setting: urine 30 min, sequentially administered (Example 32).
Setting [19] is: urine 180 min, Sm-DTPA, La-DTPA and Eu-DTPA simultaneously administered (Example 31).
[20] abbreviates: urine 180 min, sequentially administered (Example 32).

For the compound `O=C([O-])CN(CCN(CC(=O)[O-])CC(=O)[O-])CCN(CC(=O)[O-])CC(=O)[O-].[Eu+3]` [Eu-DTPA], in data set [1], the “% eluted from CM-Sephadex column following autoclaving” value is on record as 100%. Further, the “% of total” value in data set [1] (setting [4]) is given as 97 % of total; in data set [1] (setting [5]) it was 3 % of total; in data set [1] (setting [6]) it was 0 % of total; in data set [2] (setting [7]), 0 % of total; in data set [2] (setting [8]), 100 % of total; in data set [2] (setting [9]), 0 % of total. Also, the “% of total” value in data set [2] (setting [10]) is listed as 0 % of total. For the same compound, the dpm is recorded as 380954 dpm in data set [1] (setting [4]); 13226 dpm in data set [1] (setting [5]); 0 dpm in data set [1] (setting [6]); 0 dpm in data set [2] (setting [7]); 22115 dpm in data set [2] (setting [8]); 0 dpm in data set [2] (setting [9]). Besides, the dpm in data set [2] (setting [10]) stood at 0 dpm. Moreover, the “% eluted from the CM-Sephadex column” value in data set [2] amounted to 100%. Also, the “time within which the chelate forms” value in data set [2] is ≤ 5 min. For the same compound, the “Percent of initial injection, blood” value is reported as 87% of initial injection in data set [3] (setting [11]); 87% of initial injection in data set [3] (setting [12]); 62% of initial injection in data set [3] (setting [13]); 64% of initial injection in data set [3] (setting [14]); 33% of initial injection in data set [3] (setting [15]); 34% of initial injection in data set [3] (setting [16]). For the same compound, the “Percent of initial injection, urine” value in data set [3] (setting [17]) is reported as 21% of initial injection; in data set [3] (setting [18]) it was 26% of initial injection; in data set [3] (setting [19]), 96% of initial injection; in data set [3] (setting [20]) it was 97% of initial injection.

For `O=C([O-])CN(CCN(CC(=O)[O-])CC(=O)O)CCN(CC(=O)[O-])CC(=O)O.[Gd+3]` [Gd-DTPA, Gd-diethylenetriaminepentaacetic acid], in data set [2], the “% eluted from the CM-Sephadex column” value turned out to be 100%. Moreover, the “% of total” value in data set [2] (setting [7]) is reported as 0 % of total; in data set [2] (setting [8]) it was 100 % of total; in data set [2] (setting [9]), 0 % of total. In addition, in data set [2], the “time within which the chelate forms” value was ≤ 5 min. Also, the “Percent of initial injection, blood” value is given as 83% of initial injection in data set [3] (blood 10 min after i.v. injection, ^99mTc-DTPA, Gd-DTPA and Sm-DTPA simultaneously administered (Example 30)); 65% of initial injection in data set [3] (blood 30 min, ^99mTc-DTPA, Gd-DTPA and Sm-DTPA simultaneously administered (Example 30)); 35% of initial injection in data set [3] (blood 60 min, ^99mTc-DTPA, Gd-DTPA and Sm-DTPA simultaneously administered (Example 30)). In addition, the “Percent of initial injection, urine” value in data set [3] (urine 30 min, ^99mTc-DTPA, Gd-DTPA and Sm-DTPA simultaneously administered (Example 30)) is recorded as 22% of initial injection; in data set [3] (urine 180 min, ^99mTc-DTPA, Gd-DTPA and Sm-DTPA simultaneously administered (Example 30)), 94% of initial injection.

Take `O=C([O-])CN(CCN(CC(=O)[O-])CC(=O)[O-])CCN(CC(=O)[O-])CC(=O)[O-].[La+3]` [La-DTPA]: the “% eluted from CM-Sephadex column following autoclaving” value in data set [1] is 100%. Moreover, the “% of total” value in data set [1] (setting [4]) is on record as 97 % of total; in data set [1] (setting [5]), 3 % of total; in data set [1] (setting [6]), 0 % of total; in data set [2] (setting [7]), 0 % of total; in data set [2] (setting [8]), 100 % of total; in data set [2] (setting [9]) it was 0 % of total. The “% of total” value in data set [2] (setting [10]) is on record as 0 % of total. In addition, the dpm in data set [1] (setting [4]) was 411400 dpm; in data set [1] (setting [5]), 12180 dpm; in data set [1] (setting [6]), 0 dpm; in data set [2] (setting [7]) it was 0 dpm; in data set [2] (setting [8]), 489692 dpm; in data set [2] (setting [9]) it was 0 dpm. This compound displayed a dpm in data set [2] (setting [10]) of 0 dpm. In data set [2], the “% eluted from the CM-Sephadex column” value worked out at 100%. Further, the “time within which the chelate forms” value in data set [2] is ≤ 5 min. The “Percent of initial injection, blood” value in data set [3] (setting [11]) is given as 85% of initial injection; in data set [3] (setting [12]), 82% of initial injection; in data set [3] (setting [13]), 63% of initial injection; in data set [3] (setting [14]) it was 62% of initial injection; in data set [3] (setting [15]), 33% of initial injection; in data set [3] (setting [16]), 32% of initial injection. Further, the “Percent of initial injection, urine” value is recorded as 23% of initial injection in data set [3] (setting [17]), 25% of initial injection in data set [3] (setting [18]), 92% of initial injection in data set [3] (setting [19]) and 95% of initial injection in data set [3] (setting [20]).
